Like-named read-outs stand apart in the source and are kept apart here.
How the values were obtained:
opiate receptor K = target: T1, opiate receptor K (Cavia porcellus, UniProt P41144); experiment: Bond to the opiate receptor K in vitro (displacement of 3H Ethylketocyclazocin, guinea-pig cerebellum membranes); format: binding; conditions: for IC50: 3H Ethylketocyclazocin 1 nM, guinea-pig cerebellum membranes, Tris buffer pH 7.7, 25° C., 40 minutes, read-out: 50% inhibiting concentration (IC50); for relative bond affinity (RBA): relative to product U 50 488 H as reference
T1 construct: Membrane residues prepared from guinea-pig cerebellum; from tissue; host or cells: guinea-pig cerebellum membranes
Protocol: (2) Bond to the opiate receptor K in vitro
Membrane residues prepared from guinea-pig cerebellum kept at -30° C. for about 30 days were used and these residues were suspended in Tris buffer pH 7.7. Fractions of 2 ml were distributed into hemolysis tubes, and […] Ethylketocyclazocin 1 nM and the product to be studied were added. The products were first tested to 5×10^-6 M in triplicate. When the products tested displaced more than 50% of the radioactivity specifically linked to the receptor, they were tested again according to a range of 7 doses to determine the dose which inhibited by 50% the radioactivity specifically linked to the receptor. In this way, the 50% inhibiting concentration was determined.
The non-specific bond was determined by the addition of a product known as U 50488 H(ref. Up. John) to 10^-5 M in triplicate. After incubating at 25° C. for 40 minutes, returning to the water-bath at 0° C. for 5 minutes, filtering under reduced pressure, and rinsing in Tris buffer pH 7.7, the radioactivity was counted in the presence of scintillating Trition. The results were expressed: either directly as 50% inhibiting concentration (IC50), that is as a concentration of the product studied, expressed in nM, necessary to displace 50% of the specific radioactivity fixed on the receptor studied, or in relative bond affinity (=RBA) taking the product U 50 488 H as reference [formula]

opiate receptor μ = target: T2, opiate receptor μ (Rattus norvegicus, UniProt P33535); experiment: Bond to the opiate receptor μ in vitro (displacement of 3H dihydromorphine, rat brain membranes); format: binding, rats; conditions: for IC50: 3H dihydromorphine 0.7 nM, rat brain membranes, Tris buffer pH 7.7, 25° C., 40 minutes, read-out: 50% inhibiting concentration (IC50); for relative bond affinity (RBA): relative to morphine=100
T2 construct: prepared from brains of rats; from tissue; host or cells: rat brain membranes
Protocol: (1) Bond to the opiate receptor μ in vitro
Membrane residues preserved at -30° C. for about 30 days and prepared from brains of rats were used in this test and these residues were suspended in Tris buffer pH 7.7. Fractions of 2 ml were distributed into hemolysis tubes and ^3 H dihydromorphine 0.7 nM and the product to be studied were added. The products were first of all tested with 5×10^-6 M in triplicate. When the tested products displaced more than 50% of the radioactivity specifically linked to the receptor, they were tested again according to a range of 7 doses to determine the dose which inhibited by 50% the radioactivity specifically linked to the receptor. The 50% inhibiting concentration was thus determined.
The non-specific bond was determined by addition of 10^-5 M morphine in triplicate. After incubating at 25° C. for 40 minutes, returning to the water-bath at 0° C. for 5 minutes, filtering under vacuum, rinsing with Tris buffer pH 7.7, the radioactivity was counted in the presence of scintillating Trition. The results were expressed: either directly as 50% inhibiting concentration (IC50), that is as a concentration of the product studied, expressed in nM, necessary to displace 50% of the specific radioactivity fixed on the receptor studied, or in relative bond affinity (RBA), taking morphine=100 as a reference [formula]

[1] = Analgesic activity, warm plate test; format: in vivo; conditions: Mus musculus, 1 h, female mice, 56° C. plate, 60 minutes after treatment, read-out: AD100 (dose which increased the reaction time by 100%)
Protocol: Female mice weighing from 22 to 24 g were placed one by one on a copper plate maintained at 56° C. The reaction to pain was shown by the animals licking their front paws and the time of this reaction was noted and was only retained when the mice reacted in less than 8 seconds. The animals were divided into equal groups and were treated with the products to be studied, one group receiving only the vehicle. The time of reaction to pain was again measured 30 to 60 minutes after the treatment and the active dose or AD100 was the dose which increased the reaction time by 100%, 60 minutes after the treatment, taking account of the variations of the reaction time of the control animals.

T1 sequence (P41144 whole entry): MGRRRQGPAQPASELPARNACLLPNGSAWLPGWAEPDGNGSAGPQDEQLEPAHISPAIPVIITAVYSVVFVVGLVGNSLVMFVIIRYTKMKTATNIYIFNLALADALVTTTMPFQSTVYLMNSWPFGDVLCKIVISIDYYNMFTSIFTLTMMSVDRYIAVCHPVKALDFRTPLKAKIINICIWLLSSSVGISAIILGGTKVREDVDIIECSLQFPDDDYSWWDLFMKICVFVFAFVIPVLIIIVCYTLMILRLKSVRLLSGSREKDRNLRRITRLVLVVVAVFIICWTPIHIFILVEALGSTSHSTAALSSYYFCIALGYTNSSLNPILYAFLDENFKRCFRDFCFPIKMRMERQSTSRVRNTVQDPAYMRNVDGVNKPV
T2 sequence (P33535 whole entry): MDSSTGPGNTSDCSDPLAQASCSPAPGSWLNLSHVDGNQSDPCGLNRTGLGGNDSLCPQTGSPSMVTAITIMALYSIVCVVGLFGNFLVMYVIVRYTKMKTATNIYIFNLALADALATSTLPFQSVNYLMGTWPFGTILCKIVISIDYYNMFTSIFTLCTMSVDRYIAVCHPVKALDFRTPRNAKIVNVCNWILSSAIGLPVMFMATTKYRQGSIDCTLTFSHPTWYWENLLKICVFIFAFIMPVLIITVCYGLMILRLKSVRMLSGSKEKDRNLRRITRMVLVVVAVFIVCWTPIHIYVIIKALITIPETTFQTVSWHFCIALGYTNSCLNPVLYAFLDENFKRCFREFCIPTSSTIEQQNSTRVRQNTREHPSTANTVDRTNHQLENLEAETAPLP

Structure (SMILES)	IC50 (opiate receptor K) [nM]	relative bond affinity (RBA) (opiate receptor K)	IC50 (opiate receptor μ) [nM]	relative bond affinity (RBA) (opiate receptor μ)	ED (100% increase in reaction time) ([1]; oral route) [mg/kg]	ED (100% increase in reaction time) ([1]; central, intracerebral ventricle route) [mg/kg]
CCCN1CC=C(c2cccc3[nH]ccc23)CC1 [Example 7, 4-(1-propyl-1,2,3,6-tetrahydropyridin-4-yl)-1H-indole]	182	1.4				
C=CCOc1ccccc1OCC(O)CN1CC=C(c2cccc3[nH]ccc23)CC1 (stereo not drawn) [Example 11, 4-(1H-indol-4-yl)-α-[[2-(2-propenyloxy)-phenoxy]-methyl]-1,2,3,6-tetrahydro-1-pyridine ethanol]			9.43	22.43		
C=CCOc1ccccc1OCC(O)CN1CC=C(c2cccc3c2CC(=O)N3)CC1 (centres unmarked) [Example 13, 1,3-dihydro-4-[1-[2-hydroxy-3-[2-(2-propenyloxy)-phenoxy]propyl]-1,2,3,6-tetrahydro-4-pyridinyl]-2H-indol-2-one]			1.4	270	20	
COC1(c2cccc3[nH]ccc23)CCNCC1 [Example 14, 4-(4-methoxy-4-piperidinyl)-1H-indole]			28	13		0.5
Cl.O=C1Cc2c(cccc2C2=CCN(CCc3ccccc3)CC2)N1 [Example 26, 1,3-dihydro-4-[1-(2-phenylethyl)-1,2,3,6-tetrahydro-4-pyridinyl]-2H-indole-2-one hydrochloride]			59	8.2		
Cl.O=C1Cc2c(cccc2C2=CCN(CCOc3ccccc3)CC2)N1 [Example 29, 1,3-dihydro-4-[1-(2-phenoxyethyl)-1,2,3,6-tetrahydro-4-pyridinyl]-2H-indol-2-one hydrochloride]	152	1.1	11	23		
Cl.O=C1Cc2c(cccc2C2=CCN(CCCC(=O)c3ccc(F)cc3)CC2)N1 [Example 32, 1,3-dihydro-4-[1-[(4-fluorophenyl)-4-oxobutyl]-1,2,3,6-tetrahydropyridin-4-yl]-2H-indole-2-one hydrochloride]	460	1.3	3.5	62		

— patent US4737505A, “Analgesic 4-substituted indoles” (priority 1984, dated 1988)
